Measurements: patent US20180153995A1, “USE OF ANTIMICROBIAL POLYMERS FOR RE-SENSITIZATION OF MICROORGANISMS UPON EMERGENCE OF RESISTANCE TO ANTI-MICROBIAL AGENTS” (Technion Research & Development Foundation Limited, priority 2008, published 2018)
Read-outs that look alike come from different tables or passages of the source.

What was measured:
S. aureus 43300 [1] = assay: Antibiotic MIC by microdilution with or without sub-MIC polymer; assay type: cell-based, Staphylococcus aureus; details: no polymer (None)
E. coli 14384 = assay: as above; assay type: cell-based, Escherichia coli
In short: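 Bacterial suspension (10^5 per ml) was added to medium carrying serially diluted antibiotic and the lipopeptide […]. After 24 hours at 37° C, proliferation was measured at 620 nm. The MIC was taken from this optical density read-out.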

S. aureus 43300 [2] = assay: as above; assay type: cell-based, Staphylococcus aureus
S. aureus 17314 = assay: as above; assay type: cell-based, Staphylococcus aureus
MRSA 15903 = assay: microbe, parasite or virus in culture; assay type: cell-based, Staphylococcus aureus
In short: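 Values are FIC indexes, summing each agent's MIC in combination divided by its MIC alone, for MRSA 15903. Interpretation: <0.5 clear re-sensitization, 0.5 to 4 marginal or none, >4 antagonistic.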

## CC1(C)S[C@@H]2[C@H](NC(=O)Cc3ccccc3)C(=O)N2[C@H]1C(=O)O [Penicillin G, penicillin G]
S. aureus 43300 [1]; Table 8
  Antibiotic MIC: 4 µg/mL
S. aureus 43300 [1]; Table 9
  Antibiotic MIC: 4 µg/mL
S. aureus 43300 [1]; Table 10
  Antibiotic MIC: 4 µg/mL
S. aureus 43300 [1]; Table 11
  Antibiotic MIC: 8 µg/mL
S. aureus 43300 [1]; Table 12
  Antibiotic MIC: 8 µg/mL
E. coli 14384
  Antibiotic MIC: 512 µg/mL
E. coli 14384; E. coli 14384, +½ MIC C12K(NC8K)5NH2
  Antibiotic MIC: >512 µg/mL
E. coli 14384; E. coli 14384, antibiotic alone (Table 15)
  Antibiotic MIC, None: >512 µg/mL
E. coli 14384; E. coli 14384, no polymer (None), Table 9
  Antibiotic MIC: 512 µg/mL
E. coli 14384; E. coli 14384, no polymer (None), Table 14
  Antibiotic MIC: >512 µg/mL
E. coli 14384; E. coli 14384, polymer at ¼ of its MIC
  Antibiotic MIC in presence of C12K(NC8K)7NH2 (SEQ ID NO: 4), +¼ MIC: >512 µg/mL
E. coli 14384; E. coli 14384, polymer at ½ of its MIC
  Antibiotic MIC in presence of C12K(NC8K)7NH2 (SEQ ID NO: 4), +½ MIC: >512 µg/mL
E. coli 14384; E. coli 14384, polymer at ⅓ of its MIC
  Antibiotic MIC in presence of C12K(NC8K)7NH2 (SEQ ID NO: 4), +⅓ MIC: >512 µg/mL
S. aureus 43300 [2]; +¼ MIC (1.6 μM) C12(5-ene)KKNC12KNH2
  Antibiotic MIC: 1 µg/mL
S. aureus 43300 [2]; +¼ MIC (1.6 μM) C12K(KNC12K)2NH2
  Antibiotic MIC: 8 µg/mL
S. aureus 43300 [2]; +¼ MIC (1.6 μM) C12KKNC12KNH2
  Antibiotic MIC: 4 µg/mL
S. aureus 43300 [2]; +¼ MIC (1.6 μM) C16(9-ene)KKNC12KNH2
  Antibiotic MIC: 2 µg/mL
S. aureus 43300 [2]; +½ MIC (3.12 μM) C12K(KNC12K)2NH2
  Antibiotic MIC: 4 µg/mL
S. aureus 43300 [2]; +½ MIC (3.12 μM) C12KKNC12KNH2
  Antibiotic MIC: 1 µg/mL
S. aureus 43300 [2]; +½ MIC (3.12 μM) C16(9-ene)KKNC12KNH2
  Antibiotic MIC: 0.25 µg/mL
S. aureus 43300 [2]; +⅓ MIC (2.1 μM) C12(5-ene)KKNC12KNH2
  Antibiotic MIC: 0.25 µg/mL
S. aureus 43300 [2]; +⅓ MIC (2.1 μM) C12K(KNC12K)2NH2
  Antibiotic MIC: 8 µg/mL
S. aureus 43300 [2]; +⅓ MIC (2.1 μM) C12KKNC12KNH2
  Antibiotic MIC: 2 to 4 µg/mL
S. aureus 43300 [2]; +⅓ MIC (2.1 μM) C16(9-ene)KKNC12KNH2
  Antibiotic MIC: 1 to 2 µg/mL
S. aureus 17314
  Antibiotic MIC: 64 to 128 µg/mL
S. aureus 17314; S. aureus 17314, +¼ MIC (1.6 μM) C12K(KNC12K)2NH2
  Antibiotic MIC: 128 µg/mL
S. aureus 17314; S. aureus 17314, +¼ MIC (1.6 μM) C14(9-ene)KKNC12KNH2
  Antibiotic MIC: 8 µg/mL
S. aureus 17314; S. aureus 17314, +¼ MIC (1.6 μM) C16(9-ene)KKNC12KNH2
  Antibiotic MIC: 2 µg/mL
S. aureus 17314; S. aureus 17314, +½ MIC (3.12 μM) C12K(KNC12K)2NH2
  Antibiotic MIC: 64 µg/mL
S. aureus 17314; S. aureus 17314, +½ MIC (3.12 μM) C12KKNC12KNH2
  Antibiotic MIC: 64 µg/mL
S. aureus 17314; S. aureus 17314, +½ MIC (3.12 μM) C14(9-ene)KKNC12KNH2
  Antibiotic MIC: 6 µg/mL
S. aureus 17314; S. aureus 17314, +½ MIC (3.12 μM) C16(9-ene)KKNC12KNH2
  Antibiotic MIC: 0.5 µg/mL
S. aureus 17314; S. aureus 17314, +⅓ MIC (2.1 μM) C12K(KNC12K)2NH2
  Antibiotic MIC: 128 µg/mL
S. aureus 17314; S. aureus 17314, +⅓ MIC (2.1 μM) C14(9-ene)KKNC12KNH2
  Antibiotic MIC: 8 µg/mL
S. aureus 17314; S. aureus 17314, +⅓ MIC (2.1 μM) C16(9-ene)KKNC12KNH2
  Antibiotic MIC: 1 µg/mL
S. aureus 17314; S. aureus 17314, no polymer (None), Table 9
  Antibiotic MIC: 8 µg/mL
S. aureus 17314; S. aureus 17314, no polymer (None), Table 10
  Antibiotic MIC: 8 to 16 µg/mL
S. aureus 17314; S. aureus 17314, no polymer (None), Table 11
  Antibiotic MIC: 128 µg/mL
S. aureus 17314; S. aureus 17314, no polymer (None), Table 12
  Antibiotic MIC: 128 µg/mL
MRSA 15903; MRSA 15903, +¼ polymer MIC (1.6 μM) NC12(KNC12K)2NH2
  MIC: 8 µg/mL
MRSA 15903; MRSA 15903, +½ polymer MIC (3.1 μM) NC12(KNC12K)2NH2
  MIC: 1 µg/mL
MRSA 15903; MRSA 15903, +⅓ polymer MIC (2.1 μM) NC12(KNC12K)2NH2
  MIC: 2 µg/mL
MRSA 15903; MRSA 15903, antibiotic alone
  MIC: 64 µg/mL
MRSA 15903; MRSA 15903, antibiotic alone (Table 22)
  MIC, Alone: 64 µg/mL
MRSA 15903; MRSA 15903, with C12K(KNC10K)3NH2 (SEQ ID NO: 10) at ¼ of its MIC
  MIC, ¼ + MIC OAK: 64 µg/mL
MRSA 15903; MRSA 15903, with C12K(KNC10K)3NH2 (SEQ ID NO: 10) at ½ of its MIC
  MIC, ½ + MIC OAK: 4 to 16 µg/mL
MRSA 15903; MRSA 15903, with C12K(KNC10K)3NH2 (SEQ ID NO: 10) at ⅓ of its MIC
  MIC, ⅓ + MIC OAK: 64 µg/mL
MRSA 15903; S. aureus CI-15903, +polymer (¼ MIC) C12(5-ene)KKNC12KNH2
  MIC: 32 µg/mL
MRSA 15903; S. aureus CI-15903, +polymer (½ MIC) C12(5-ene)KKNC12KNH2
  MIC: 0.25 µg/mL
MRSA 15903; S. aureus CI-15903, +polymer (⅓ MIC) C12(5-ene)KKNC12KNH2
  MIC: 4 µg/mL
MRSA 15903; S. aureus CI-15903, alone
  MIC: 64 µg/mL
